The text below walks through data of US8785453B2, “Arylpiperazine-containing purine derivatives and uses thereof” (Green Cross Corporation, priority 2009, dated 2014).

Test [1] deals with mice. Briefly: Anti-depressants activity in forced swimming test. It counts as in vivo. As to conditions: 60 min before testing.
Experimental: Each mouse was placed in a 25 cm glass cylinder (10 cm diameter) containing 15 cm of water maintained at 22±1, and was forced to swim for 10 min. 24 hours later, the mouse was replaced into the cylinder and the total duration of immobility was recorded during the last 5 min of the 6-min testing period. Mice are judged immobile when they float in an upright position and make only small movements to keep their head above water. Test drugs were suspended in 3% Tween 80 solution, and administered orally (po) 60 min before the testing.
In test [2] the target is T1, human recombinant serotonin 5-HT2A receptor (Homo sapiens, UniProt P28223).
T1 construct: purchased PerkinElmer Life and Analytical Sciences, USA; host or cells: CHO-K1 cells
Briefly: Binding affinity for serotonin 5-HT2A receptor ([3H]Ketanserin). The procedure:
(§1) Receptor binding affinities of the compounds for serotonin receptors were measured by the method described in the literature (see [Park W K et al., Pharmacol Biochem Behav., 82(2), 361-372 (2005)].
For serotonin 5-HT2A binding, an aliquot of human recombinant serotonin 5-HT2A receptor (PerkinElmer Life and Analytical Sciences, USA) expressed in CHO-K1 cells (5 μg/well) and 1 nM [^3H]Ketanserin (PerkinElmer) were used in the presence of mianserin (20 μM) as a nonspecific. The reaction mixture was incubated for 60 min […] 50 mM Tris-HCl (pH 7.4) buffer containing 4 mM CaCl2 and 0.1% ascorbic acid, and harvested through filtermate A glass fiber filter (Wallac, Finland) presoaked in 0.5% polyethyleneimine (PEI) by microbeta filtermate-96 harvester (PerkinElmer) to terminate the reaction, and then washed with ice cold 50 mM Tris-HCl buffer solution (pH 7.4). The filter was then covered with MeltiLex, sealed in a sample bag, dried in an oven. The radioactivity retained in the filter was finally counted using MicroBeta Plus (Wallac).
(§2) The binding affinity (IC50) of a compound for the receptor was calculated by computerized nonlinear regression analysis (GraphPad Prism Program, San Diego, USA) using 7-8 varied concentrations of the compound run in duplicate tubes.

The target in test [3] is T2, human serotonin transporter (Homo sapiens, UniProt P31645).
T2 construct: purchased PerkinElmer; host or cells: HEK-293 cells
Briefly: Binding affinity for serotonin transporter ([3H]Imipramine). The procedure: For serotonin transporter binding assays, a reaction mixture with a final volume of 0.25 ml was prepared by mixing a test compound, human serotonin transporter membrane expressed in HEK-293 cells (PerkinElmer, 5 μg/well), [^3H] Imipramine (PerkinElmer, 2 nM) and 50 mM Tris-HCl (pH 7.4) buffer containing 120 mM NaCl and 5 mM KCl. The reaction mixture was incubated for 30 min at 27, and harvested through filtermate A glass fiber filter presoaked in 0.5% PEI with ice cold 50 mM Tris-HCl buffer (pH 7.4) containing 0.9% NaCl.

The target of test [4] is T3, human recombinant 5-HT2C receptor (Homo sapiens, UniProt P28335).
T3 construct: purchased PerkinElmer
T3 sequence (P28335 33-458): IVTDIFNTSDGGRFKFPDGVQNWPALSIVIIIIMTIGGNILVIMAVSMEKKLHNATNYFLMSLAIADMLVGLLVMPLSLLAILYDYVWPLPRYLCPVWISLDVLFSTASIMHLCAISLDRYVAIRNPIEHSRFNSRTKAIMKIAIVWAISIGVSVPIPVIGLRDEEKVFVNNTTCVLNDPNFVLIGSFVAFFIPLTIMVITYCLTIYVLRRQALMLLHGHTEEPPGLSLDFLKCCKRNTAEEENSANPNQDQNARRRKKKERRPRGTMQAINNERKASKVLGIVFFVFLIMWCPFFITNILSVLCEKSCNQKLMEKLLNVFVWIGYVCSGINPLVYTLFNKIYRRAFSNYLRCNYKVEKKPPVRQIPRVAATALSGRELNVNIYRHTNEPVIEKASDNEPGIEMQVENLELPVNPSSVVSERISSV
Briefly: Binding affinity for serotonin 5-HT2C receptor ([3H]Mesulergine). The procedure: as §1, §2
For serotonin 5-HT2C binding, frozen membranes from stable CHO-K1 cell line expressing the human recombinant 5-HT2C receptor (PerkinElmer, 4 μg/well), [^3H]Mesulergine (Amersham, 1.3 nM) and test compounds were added into 50 mM Tris-HCl (pH 7.4) buffer containing 0.1% ascorbic acid and 4 mM CaCl2. Nonspecific binding was determined using 100 μM mianserin. The incubations were performed for 60 min at 27, and these were terminated by rapid filtration through filtermate A glass fiber filter presoaked in 0.5% PEI.

[5] abbreviates: CHO-K1 cells, 1 nM [3H]Ketanserin, read-out: binding affinity (IC50) 5-HT2A.
Setting [6] is: HEK-293 membrane, 2 nM [3H]Imipramine, read-out: binding affinity Serotonin Transporter.
[7] abbreviates: CHO-K1 membranes, 1.3 nM [3H]Mesulergine, read-out: binding affinity (IC50) 5-HT2C.

Structures can show the parent of a compound that is named as a salt. Where two headings read alike, the source gives them in different places. Marks after values point to notes of the source that are not given here.

T2 sequence (P31645 whole entry): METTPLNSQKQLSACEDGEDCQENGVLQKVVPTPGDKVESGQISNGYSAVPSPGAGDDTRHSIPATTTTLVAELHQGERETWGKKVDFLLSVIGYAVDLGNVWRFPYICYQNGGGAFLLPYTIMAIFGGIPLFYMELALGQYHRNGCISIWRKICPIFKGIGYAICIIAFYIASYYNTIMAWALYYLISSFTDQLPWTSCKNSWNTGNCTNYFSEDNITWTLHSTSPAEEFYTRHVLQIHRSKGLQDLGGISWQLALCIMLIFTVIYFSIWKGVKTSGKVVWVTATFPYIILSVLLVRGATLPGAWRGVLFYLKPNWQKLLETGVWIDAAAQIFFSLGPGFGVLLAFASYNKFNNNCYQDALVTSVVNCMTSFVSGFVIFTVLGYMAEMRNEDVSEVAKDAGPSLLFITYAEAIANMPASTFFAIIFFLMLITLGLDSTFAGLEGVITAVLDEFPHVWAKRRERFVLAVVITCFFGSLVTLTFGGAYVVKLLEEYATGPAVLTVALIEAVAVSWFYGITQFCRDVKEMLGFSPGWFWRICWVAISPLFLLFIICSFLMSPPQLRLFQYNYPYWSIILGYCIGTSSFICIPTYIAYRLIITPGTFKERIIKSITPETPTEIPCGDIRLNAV
T1 sequence (P28223 whole entry): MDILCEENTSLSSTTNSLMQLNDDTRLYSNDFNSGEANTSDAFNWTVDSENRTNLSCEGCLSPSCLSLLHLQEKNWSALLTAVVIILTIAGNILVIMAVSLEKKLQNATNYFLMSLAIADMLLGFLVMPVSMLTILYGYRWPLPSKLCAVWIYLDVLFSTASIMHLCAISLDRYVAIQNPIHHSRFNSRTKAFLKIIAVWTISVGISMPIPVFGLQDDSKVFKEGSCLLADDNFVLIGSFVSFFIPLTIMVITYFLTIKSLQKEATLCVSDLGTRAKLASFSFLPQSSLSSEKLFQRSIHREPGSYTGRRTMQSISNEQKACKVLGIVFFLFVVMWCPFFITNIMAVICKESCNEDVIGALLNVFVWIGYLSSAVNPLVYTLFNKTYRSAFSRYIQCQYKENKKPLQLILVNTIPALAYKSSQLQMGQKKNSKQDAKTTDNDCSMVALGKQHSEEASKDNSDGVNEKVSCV

With `Clc1cccc(N2CCN(CCCNc3ncnc4c3nc(-c3ccccc3)n4-c3ccccc3)CC2)c1Cl` [Example 1, N-(3-(4-(2,3-dichlorophenyl)piperazin-1-yl)propyl)-8,9-diphenyl-9H-purine-6-amine], in test [1] (50 mg/kg po), the “Immobility in forced swimming test” value was 41.79%. Moreover, the values for the IC50 in test [2], in test [3] and in test [4] were 14 nM, 64 nM and 86 nM, respectively.

Consider `Cc1cccc(N2CCN(CCCNc3ncnc4c3nc(-c3ccccc3)n4-c3ccccc3)CC2)c1C` [Example 2, N-(3-(4-(2,3-dimethylphenyl)piperazin-1-yl)propyl)-8,9-diphenyl-9H-purine-6-amine], for which the “Immobility in forced swimming test” value in test [1] (25 mg/kg po) is 58.34 ± 11.05%; in test [1] (50 mg/kg po) it was 47.13 ± 10.41%. The IC50 in test [2] (setting [5]) turned out to be 32 nM; in test [3] (setting [6]) it was 75 nM; in test [4] (setting [7]), 163 nM.

As for `CCc1nc2c(NCCN3CCN(c4cccc(C)c4C)CC3)ncnc2n1-c1ccccc1` [Example 10, N-(2-(4-(2,3-dimethylphenyl)piperazin-1-yl)ethyl)-8-ethyl-9-phenyl-9H-purine-6-amine], the “Immobility in forced swimming test” value is 74.56 ± 14.08% in test [1] (25 mg/kg po) and 80.58 ± 11.21% in test [1] (50 mg/kg po). The IC50 in test [2] (setting [5]) was 11 nM; in test [3] (setting [6]), 161 nM; in test [4] (setting [7]), 106 nM.

In the case of `CCCc1nc2c(NCCN3CCN(c4cccc(C)c4C)CC3)ncnc2n1-c1ccccc1` [Example 12, N-(2-(4-(2,3-dimethylphenyl)piperazin-1-yl)ethyl)-9-phenyl-8-propyl-9H-purine-6-amine], the “Immobility in forced swimming test” value in test [1] (25 mg/kg po) came to 94.69 ± 12.46%. In addition, the IC50 in test [2] (setting [5]) is 13 nM; in test [3] (setting [6]), 93 nM; in test [4] (setting [7]), 147 nM.

`Cc1cccc(N2CCN(CCCNc3ncnc4c3ncn4-c3ccccc3)CC2)c1C` [Example 13, N-(3-(4-(2,3-dimethylphenyl)piperazin-1-yl)propyl)-9-phenyl-9H-purine-6-amine]: the “Immobility in forced swimming test” value in test [1] (25 mg/kg po) is reported as 89.81 ± 7.14%. For the same molecule, the IC50 in test [2] (setting [5]) turned out to be 56 nM; in test [3] (setting [6]), 35 nM; in test [4] (setting [7]) it was 294 nM.

Consider `Cc1cccc(N2CCN(CCNc3ncnc4c3nc(-c3ccccc3)n4-c3ccccc3)CC2)c1C` [Example 18, N-(2-(4-(2,3-dimethylphenyl)piperazin-1-yl)ethyl)-8,9-diphenyl-9H-purine-6-amine], for which the “Immobility in forced swimming test” value in test [1] (25 mg/kg po) came out at 89.98 ± 11.45%. Besides, the IC50 in test [2] (setting [5]) is 28 nM; in test [3] (setting [6]) it was 575 nM; in test [4] (setting [7]), 216 nM.

For the molecule `Cc1cccc(N2CCN(CCCNc3ncnc4c3nc(-c3ccccc3)n4C)CC2)c1C` [Example 23, N-(3-(4-(2,3-dimethylphenyl)piperazin-1-yl)propyl)-9-methyl-8-phenyl-9H-purine-6-amine], in test [1] (25 mg/kg po), the “Immobility in forced swimming test” value was found to be 99.59 ± 6.34%. Further, the IC50 is 36 nM in test [2] (setting [5]), 106 nM in test [3] (setting [6]) and 76 nM in test [4] (setting [7]).

Regarding `Cc1cccc(N2CCN(CCCNc3ncnc4c3nc(C)n4C)CC2)c1C` [Example 28, N-(3-(4-(2,3-dimethylphenyl)piperazin-1-yl)propyl)-8,9-dimethyl-9H-purine-6-amine], in test [1] (25 mg/kg po), the “Immobility in forced swimming test” value stood at 87.65 ± 7.08%. Further, the IC50 in test [2] (setting [5]) is 65 nM; in test [3] (setting [6]), 85 nM; in test [4] (setting [7]) it was 430 nM.

Turning to `Cc1cccc(N2CCN(CCCNc3ncnc4c3ncn4-c3ccc4c(c3)OCO4)CC2)c1C` [Example 34, 9-(benzo[d][1,3]dioxol-5-yl)-N-(3-(4-(2,3-dimethylphenyl)piperazin-1-yl)propyl)-9H-purine-6-amine], the entries for the “Immobility in forced swimming test” value in test [1] (25 mg/kg po) and in test [1] (50 mg/kg po) were 76.92 ± 10.04% and 96.83 ± 11.02%, respectively. Further, the IC50 in test [2] (setting [5]) is 54 nM; in test [3] (setting [6]), 6 nM; in test [4] (setting [7]) it was 230 nM.

In the case of `Cc1cccc(N2CCN(CC(O)CNc3ncnc4c3nc(C)n4-c3ccc4c(c3)OCO4)CC2)c1C` (centres unmarked) [Example 35, 1-(9-(benzo[d][1,3]dioxol-5-yl)-8-methyl-9H-purin-6-ylamino)-3-(4-(2,3-dimethylphenyl)piperazin-1-yl)propan-2-ol], the “Immobility in forced swimming test” value in test [1] (25 mg/kg po) stood at 87.36 ± 6.89%. The IC50 in test [2] (setting [5]) came to 106 nM; in test [3] (setting [6]) it was 27 nM; in test [4] (setting [7]), 789 nM.

With `Cc1cccc(N2CCN(CCCNc3ncnc4c3nc(C)n4-c3ccc4c(c3)OCO4)CC2)c1C` [Example 36, 9-(benzo[d][1,3]dioxol-5-yl)-N-(3-(4-(2,3-dimethylphenyl)piperazin-1-yl)propyl)-8-methyl-9H-purine-6-amine], the entries for the “Immobility in forced swimming test” value in test [1] (25 mg/kg po) and in test [1] (50 mg/kg po) were 79.93 ± 13.23% and 86.77 ± 11.28%, respectively. Further, the IC50 in test [2] (setting [5]) came to 29 nM; in test [3] (setting [6]) it was 4 nM; in test [4] (setting [7]), 285 nM.

In the case of `Cc1cccc(N2CCN(CC(O)CNc3ncnc4c3nc(C(C)(C)C)n4C)CC2)c1C` (centres unmarked) [Example 38, 1-(8-tert-butyl-9-methyl-9H-purin-6-ylamino)-3-(4-(2,3-dimethylphenyl)piperazin-1-yl)propan-2-ol], the “Immobility in forced swimming test” value is on record as 74.86 ± 9.75% in test [1] (25 mg/kg po) and 64.14 ± 10.74% in test [1] (50 mg/kg po). For the same molecule, the IC50 in test [2] (setting [5]) is 404 nM; in test [3] (setting [6]) it was 19 nM; in test [4] (setting [7]), 1590 nM.

For `CCc1nc2c(NCCCN3CCN(c4cccc(C)c4C)CC3)ncnc2n1-c1ccc2c(c1)OCO2` [Example 39, 9-(benzo[d][1,3]dioxol-5-yl)-N-(3-(4-(2,3-dimethylphenyl)piperazin-1-yl)propyl)-8-ethyl-9H-purine-6-amine], the “Immobility in forced swimming test” value in test [1] (25 mg/kg po) amounted to 88.94 ± 5.41%. The IC50 amounted to 33 nM in test [2] (setting [5]), 21 nM in test [3] (setting [6]) and 328 nM in test [4] (setting [7]).

As to `Cc1c(Cl)cccc1N1CCN(CCCNc2ncnc3c2nc(-c2ccccc2)n3-c2ccccc2)CC1` [Example 67, N-(3-(4-(3-chloro-2-methylphenyl)piperazin-1-yl)propyl)-8,9-diphenyl-9H-purine-6-amine], the figures for the IC50 in test [2] (setting [5]), in test [3] (setting [6]) and in test [4] (setting [7]) were 42 nM, 96 nM and 247 nM, respectively.

`Cc1cccc(N2CCN(CCCNc3ncnc4c3nc(-c3ccccc3)n4-c3ccc(F)cc3)CC2)c1C` [Example 79, N-(3-(4-(2,3-dimethylphenyl)piperazin-1-yl)propyl)-9-(4-fluorophenyl)-8-phenyl-9H-purine-6-amine]: the IC50 in test [2] (setting [5]) is 43 nM; in test [3] (setting [6]) it was 67 nM; in test [4] (setting [7]), 303 nM.

As to `CSc1ccc(-n2c(C)nc3c(NCCN4CCN(c5cccc(C)c5C)CC4)ncnc32)cc1` [Example 85, N-(2-(4-(2,3-dimethylphenyl)piperazin-1-yl)ethyl)-8-methyl-9-(4-(methylthio)phenyl)-9H-purine-6-amine hydrochloride], the IC50 in test [2] (setting [5]) was found to be 9.6 nM; in test [3] (setting [6]) it was 362 nM; in test [4] (setting [7]), 70 nM.

On to `CNCCC(Oc1ccc(C(F)(F)F)cc1)c1ccccc1` (centres unmarked) [Fluoxetine, reference compound], for which the “Immobility in forced swimming test” value in test [1] (50 mg/kg po) is reported as 70.4^b %; in test [1] (100 mg/kg po), 59.5^b %.
